Laboratory results from ChEMBL document CHEMBL5241072, “Overview of piperlongumine analogues and their therapeutic potential” (Eur J Med Chem, 2021).

Key:
A549 = assay: Antiproliferative activity against human A549 cells assessed as cell growth inhibition; assay type: functional, cell-based
20S proteasome = assay: Inhibition of human 20S proteasome; assay type: protein-complex assay
[1] = Cytotoxicity against mouse RAW264.7 cells assessed as cell growth inhibition; assay type: toxicity, cell-based
Hepatitis B virus [2] = assay: Antiviral activity against HBV infected in human HepG2.2.15 cells assessed as reduction in intracellular HBV DNA level; assay type: functional, organism-based
Hepatitis B virus [3] = assay: Antiviral activity against HBV infected in human HepG2.2.15 cells assessed as reduction in extracellular HBV DNA level; assay type: functional, organism-based
Oryctolagus cuniculus [4] = species on record: Oryctolagus cuniculus; assay: Antiplatelet activity in rabbit plasma assessed as inhibition of ADP induced platelet aggregation by microplate reader analysis; assay type: functional
Oryctolagus cuniculus [5] = species on record: Oryctolagus cuniculus; assay: Antiplatelet activity in rabbit plasma assessed as inhibition of arachidonic acid induced platelet aggregation by microplate reader analysis; assay type: functional
NCI-H1703 = assay: Antiproliferative activity against human NCI-H1703 cells assessed as cell growth inhibition; assay type: functional, cell-based
HeLa = assay: Antiproliferative activity against human HeLa cells assessed as cell growth inhibition; assay type: functional, cell-based
Oryctolagus cuniculus [6] = species on record: Oryctolagus cuniculus; assay: Antiplatelet activity in rabbit plasma assessed as inhibition of arachidonic acid induced platelet aggregation at 150 uM by aggregometer analysis relative to control; assay type: functional; parameters: scale not given: the % may be the effect or the level left
NSCLC = assay: Cytotoxicity against human NSCLC cells assessed as cell growth inhibition; assay type: functional, cell-based
MDA-MB-231 [7] = assay: Antitumor activity against BALB/c mouse xenografted with human MDA-MB-231 cells assessed as tumor growth inhibition at 25 mg/kg, ip measured after 21 days relative to control; assay type: functional; details: MDA-MB-231, 504 h, time 21 day, read-out: TGI
[8] = Inhibition of TrxR in human MDA-MB-231 cells; assay type: cell-based
MDA-MB-231 [9] = assay: Potency index, ratio of piperlongumine IC50 to compound IC50 for inhibition of TrxR in human MDA-MB-231 cells; assay type: cell-based
MDA-MB-231 [10] = assay: Antiproliferative activity against human MDA-MB-231 cells assessed as cell growth inhibition; assay type: functional, cell-based
PC-12 = assay: Neuroprotective activity against H2O2-induced cytotoxicity in rat PC-12 cells assessed as cell survival rate preincubated for 24 hrs followed by H2O2 stimulation and measured after 24 hrs by MTT assay relative to control; assay type: functional; details: time 48 hrs
HGC-27 [11] = assay: Potency index, ratio of piperlongumine IC50 to compound IC50 for inhibition of TrxR in human HGC-27 cells; assay type: cell-based
HGC-27 [12] = assay: Potency index, ratio of piperlongumine IC50 to compound IC50 for antiproliferative activity against human HGC-27 cells; assay type: functional
[13] = Inhibition of TrxR in human HGC-27 cells; assay type: cell-based
HGC-27 [14] = assay: Antiproliferative activity against human HGC-27 cells assessed as cell growth inhibition; assay type: functional, cell-based
HL-60 [15] = assay: Antiproliferative activity against human HL-60 cells assessed as cell growth inhibition; assay type: functional, cell-based
SF-295 [16] = assay: Antiproliferative activity against human SF-295 cells assessed as cell growth inhibition; assay type: functional, cell-based
MDA-MB-435 [17] = assay: Antiproliferative activity against human MDA-MB-435 cells assessed as cell growth inhibition in presence of piperlongumine; assay type: functional, cell-based
SF-295 [18] = assay: Antiproliferative activity against human SF-295 cells assessed as cell growth inhibition in presence of piperlongumine; assay type: functional, cell-based
HCT-8 [19] = assay: Antiproliferative activity against human HCT-8 cells assessed as cell growth inhibition; assay type: functional, cell-based
HL-60 [20] = assay: Antiproliferative activity against human HL-60 cells assessed as cell growth inhibition in presence of piperlongumine; assay type: functional, cell-based
HCT-8 [21] = assay: Antiproliferative activity against human HCT-8 cells assessed as cell growth inhibition in presence of piperlongumine; assay type: functional, cell-based
MDA-MB-435 [22] = assay: Antiproliferative activity against human MDA-MB-435 cells assessed as cell growth inhibition; assay type: functional, cell-based
Jurkat = assay: Antiproliferative activity against human Jurkat cells assessed as cell growth inhibition; assay type: functional, cell-based
8-MG-BA = assay: Antiproliferative activity against human 8-MG-BA cells assessed as cell growth inhibition; assay type: functional, cell-based
MKN-45 = assay: Antiproliferative activity against human MKN-45 cells assessed as cell growth inhibition; assay type: functional, cell-based
MCF7 = assay: Antiproliferative activity against human MCF7 cells assessed as cell growth inhibition; assay type: functional, cell-based
KB = assay: Antiproliferative activity against human KB cells assessed as cell growth inhibition; assay type: functional
LN-229 = assay: Antiproliferative activity against human LN-229 cells assessed as cell growth inhibition; assay type: functional, cell-based
[23] = Antiproliferative activity against human OCSL cell assessed as cell growth inhibition; assay type: functional, cell-based
HT-29 = assay: Antiproliferative activity against human HT-29 cells assessed as cell growth inhibition; assay type: functional, cell-based
[24] = Antiproliferative activity against human NCI-H660 cells assessed as cell growth inhibition; assay type: functional, cell-based
PC-3 = assay: Antiproliferative activity against human PC-3 cells assessed as cell growth inhibition; assay type: functional, cell-based
A-375 = assay: Antiproliferative activity against human A-375 cells assessed as cell growth inhibition; assay type: functional, cell-based
DU-145 = assay: Antiproliferative activity against human DU-145 cells assessed as cell growth inhibition; assay type: functional, cell-based
K562 = assay: Antiproliferative activity against human K562 cells assessed as cell growth inhibition; assay type: functional, cell-based
HCT-116 = assay: Antiproliferative activity against human HCT-116 cells assessed as cell growth inhibition; assay type: functional, cell-based
CCRF-CEM = assay: Antiproliferative activity against human CEM cells assessed as cell growth inhibition; assay type: functional, cell-based
[25] = Antiproliferative activity against human OC2 cells assessed as cell growth inhibition; assay type: functional, cell-based
[26] = Antiproliferative activity against human U87 cells assessed as cell growth inhibition; assay type: functional, cell-based, U-87MG ATCC; details: U-87 MG
AGS = assay: Antiproliferative activity against human AGS cells assessed as cell growth inhibition; assay type: functional, cell-based
[27] = Antiproliferative activity against human A875 cells assessed as cell growth inhibition; assay type: functional, cell-based
MOLT-4 = assay: Antiproliferative activity against human MOLT-4 cells assessed as cell growth inhibition; assay type: functional, cell-based
P388 = assay: Antiproliferative activity against mouse P388 cells assessed as cell growth inhibition; assay type: functional, cell-based

`COc1cc(/C=C/C(=O)N2CCC=C(Cl)C2=O)cc(OC)c1OC` gave an IC50 (A549) of 4.14 µM.
For `C=CC(=O)NC(=O)/C=C/c1cc(OC)c(OC)c(OC)c1`, the IC50 (20S proteasome) was 2.6 µM.
`COc1cc(/C=C/C(=O)C2CCC=CC2=O)cc(OC)c1OC` (configuration not stated) gave an IC50 [1] of 6 µM.
Compound `CC(=O)Nc1ccc(-c2cc(C)c(=O)n(Cc3ccc(Cl)cc3)n2)cc1` has an IC50 (Hepatitis B virus [2]) of 3 µM and an IC50 (Hepatitis B virus [3]) of 1.5 µM.
Work on `O=C1C=CCCN1C(=O)/C=C/c1ccc2ccccc2n1` yielded an IC50 (Oryctolagus cuniculus [4]) of 403 µM and an IC50 (Oryctolagus cuniculus [5]) of 0.13 µM.
`O=C(/C=C/c1ccc2ccccc2n1)N1CCC=C(Cl)C1=O` showed an IC50 (Oryctolagus cuniculus [4]) of 3140 µM and an IC50 (Oryctolagus cuniculus [5]) of 0.108 µM.
Work on `COc1cc(/C=C/C(=O)N2CCC=C(C#CC3CC3)C2=O)cc(OC)c1OC` yielded an IC50 (NCI-H1703) of 0.7 µM and an IC50 (HeLa) of 1.3 µM.
For `O=C(/C=C/c1cnccn1)N1CCC=C(Cl)C1=O`, the Activity (Oryctolagus cuniculus [6]) was 100%.
`COc1cc(/C=C2\CN(C=O)C/C(=C\c3cc(OC)c(OC)c(OC)c3)C2=O)cc(OC)c1OC` showed an IC50 (NSCLC) of 0.6 µM.
In the case of `O=C1C=CCC/C1=C\c1ccc(Oc2ccc(/C=C3\CCC=CC3=O)cc2)cc1`, the inhibition in vivo at 25 mg/kg (MDA-MB-231 [7]) is reported as 67%, the IC50 [8] is reported as 0.16 µM and the Ratio IC50 (MDA-MB-231 [9]) is reported as 10. It also gave an IC50 (MDA-MB-231 [10]) of 0.63 µM.
`COc1cc(OC)c(/C=C2\CC/C(=C\c3cc(OC)c(OC)c(OC)c3)C2=O)c(OC)c1` gave a Survival (PC-12) of 80%.
With `COCCOCCOc1ccc(/C=C2\CCC=CC2=O)cc1OC` the Ratio IC50 (HGC-27 [11]) was 12, the “Ratio IC50” value (HGC-27 [12]) was 10 and the IC50 [13] was 0.15 µM. It also gave an IC50 (HGC-27 [14]) of 0.76 µM.
`O=c1[nH]cc(F)c(=O)[nH]1` [FLUOROURACIL] showed an IC50 (HL-60 [15]) of 84.7 µM, an IC50 (SF-295 [16]) of 2.33 µM and an IC50 (MDA-MB-435 [17]) of 1.95 µM. For the same compound, the IC50 (SF-295 [18]) was 0.49 µM, the IC50 (HCT-8 [19]) was 11.2 µM and the IC50 (HL-60 [20]) was 38.1 µM. It also gave an IC50 (HCT-8 [21]) of 4.7 µM and an IC50 (MDA-MB-435 [22]) of 9.19 µM.
With `COc1cc(/C=C/C(=O)N2CCC=CC2=O)cc(OC)c1OC` [PIPLARTINE] the IC50 (Jurkat) was 5.3 µM, the IC50 (HL-60 [15]) was 5.3 µM and the IC50 (Oryctolagus cuniculus [4]) was 6710 µM. The IC50 (A549) was 10.2 µM, the IC50 (Oryctolagus cuniculus [5]) was 20.8 µM and the IC50 (8-MG-BA) was 10 µM. For the same compound, the IC50 (MKN-45) was 20 µM, the IC50 (MCF7) was 25 µM and the IC50 (NSCLC) was 9.2 µM. For the same compound, the IC50 (20S proteasome) was 15 µM, the IC50 (KB) was 5.6 µM and the Activity (Oryctolagus cuniculus [6]) was 76.4%. The IC50 (LN-229) was 10 µM, the IC50 (HCT-8 [19]) was 2.2 µM and the IC50 [23] was 11.3 µM. For the same compound, the IC50 (HT-29) was 1.4 µM, the IC50 [24] was 0.4 µM and the IC50 [8] was 1.52 µM. For the same compound, the IC50 (PC-3) was 4.9 µM, the IC50 (A-375) was 2.5 µM and the IC50 (DU-145) was 3.4 µM. For the same compound, the IC50 (K562) was 5.7 µM, the IC50 (HCT-116) was 13.9 µM and the IC50 (CCRF-CEM) was 4.4 µM. For the same compound, the IC50 [25] was 7.4 µM, the IC50 [26] was 10 µM and the IC50 (HGC-27 [14]) was 7.53 µM. For the same compound, the IC50 (AGS) was 20 µM, the IC50 (MDA-MB-231 [10]) was 1.72 µM and the IC50 [27] was 2.5 µM. For the same compound, the IC50 (MOLT-4) was 1.7 µM and the IC50 (P388) was 2.8 µM.
